According to patent US5770713A, “Phosphorothioate triester oligonucleotides and method of preparation” (Centre National de la Recherche Scientifique, priority 1993, dated 1998):

Key:
[1] = Stability of oligonucleotides in cellular extract (CEM cells), HPLC; format: in vitro ADME; settings: 37° C.
Procedure: (§1) Distilled water is purified on a MilliQ system (Waters-Millipore), Acetonitrile is of HPLC-far UV quality (Fisons), Ammonium acetate is of "analytical" quality (MERCK), The culture media are composed of 90% of RPMI 1640 and 10% of heat-inactivated fetal calf serum (GIBCO), The cellular extracts were kindly supplied by a person -M. Aubertin (University of Strasbourg I). They are prepared in the following way: CEM cells in the exponential growth phase are separated from the culture medium by centrifugation (10^4 g, 4 min, […]). The residue (approximately100 μl, 5×10^7 cells) is dissolved in 2 ml of buffer (Tris-HCl 140 mM, pH=7.4) and sonicated. The lysate is centrifuged (10^5 g, 1 h, 4°) to eliminate membranes, organelles and chromatin. Two types of eluents were utilized for the HPLC:
(§2) The general conditions are the same as those used for the study of stability of the phosphorothioate triester dimers, as far as the method, the equipment and the chemical products are concerned. […]
10 μl of oligonucleotide parent solution are added to 990 μl of cellular extract which have previously been filtered on a sterile Millex GV filter (Millipore, 0.22 μm). After mixing, fractions (100 μl) are distributed in sterile Eppendorf tubes, placed in an oven at 37° C., sampled at different times and immediately analyzed by HPLC.

[2] = Stability of oligonucleotides in culture medium (RPMI + 10% serum), HPLC; format: in vitro ADME, fetal calf; settings: 37° C.
Procedure: as §1, §2
30 μl of parent solution of oligonucleotide (being approximately 1.5 A260 units) are removed, which are added to 1470 μl of culture medium which has previously been filtered on a sterile Millex GV filter (Millipore 0.22 μm). […] The samples are immediately analyzed by HPLC (volume injected 80 μl) or preserved at -25° C. with a view to subsequent analysis.

[3] = Stability of dimers in culture medium (RPMI + 10% serum), HPLC; format: in vitro ADME, fetal calf; settings: 37° C., C0 =5×10^-5 M; for % PS^- (molar fraction of phosphorothioate diester dinucleoside formed, relative to initial quantity of phosphorothioate triester dinucleoside): after complete decomposition of the starting triester; for % PO^- (molar fraction of phosphodiester dinucleoside, relative to initial quantity of phosphorothioate triester dinucleoside): calculated as 100-% PS^- formed; for half-life at 50 µM: read-out: t1/2 (time at the end of which half of the starting product has decomposed) (converted)
Procedure: as §1
(§3) A 10^-2 M solution of the compound to be studied is prepared in DMSO.
(§4) This solution is diluted with water to give a parent solution of concentration 5×10^-4 M.
a) Study of stability in culture medium:
100 μl of parent solution of the compound to be studied are added to 900 μl of culture medium which has previously been filtered on a Millex GV sterile filter (Millipore, 0.22 μm). After mixing, fractions (100 μl) are distributed in sterile Eppendorf tubes. These tubes are placed in an oven at 37° C. and removed as a function of the kinetic development. The samples are immediately analyzed by HPLC (volume injected: 80 μl) or preserved at -25° C. with a view to subsequent analysis.
(§5) tl/2 =time at the end of which half of the starting product has decomposed
(§6) % PO^- , % PS^- =molar fractions of phosphodiester dinucleoside and of phosphorothioate diester dinucleoside, expressed in relation to the initial quantity of phosphorothioate triester dinucleoside.
(§7) The percentage of PS^- corresponds to the quantity of phosphorothioate diester dinucleoside formed after complete decomposition of the starting phosphorothioate triester dinucleoside (considering that the phosphorothioate diester dinucleoside is stable under the condition used and accumulates).

[4] = Stability of dimers in cellular extract (CEM cells), HPLC; format: in vitro ADME; settings: 37° C., C0 =5×10^-5 M; for % PS^- (molar fraction of phosphorothioate diester dinucleoside formed, relative to initial quantity of phosphorothioate triester dinucleoside): after complete decomposition of the starting triester; for half-life at 50 µM: human, cem cell extract, read-out: t1/2 (time at the end of which half of the starting product has decomposed)
Procedure: as §1, §3, §4
b) Study of stability in cellular extract: 100 μl of parent solution of the compound to be studied are added to 900 μl of cellular extract which has previously been filtered on a Millex GV sterile filter (Millipore, 0.22 μm). After mixing, fractions (100 μl) are distributed in Eppendorf tubes. These tubes are placed in an oven at 37° C. and removed as a function of the kinetic development. The samples are immediately analyzed by HPLC.
as §5, §6, §7

Compound	t1/2 of disappearance of the starting oligonucleotide [1] [min]	t1/2 of formation of the totally deprotected oligonucleotide [1] [min]	t1/2 of disappearance of the starting oligonucleotide [2] [min]	% PS^- (molar fraction of phosphorothioate diester dinucleoside formed, relative to initial quantity of phosphorothioate triester dinucleoside) [3] [%]	% PO^- (molar fraction of phosphodiester dinucleoside, relative to initial quantity of phosphorothioate triester dinucleoside) [3] [%]	half-life at 50 µM [3] [min]	% PS^- (molar fraction of phosphorothioate diester dinucleoside formed, relative to initial quantity of phosphorothioate triester dinucleoside) [4] [%]	half-life at 50 µM [4] [min]
6b: completely alkylated phosphorothioate dodecamer 6b; from d(CP(S) Ap(s) Cp(s) Cp(s) Cp(s) Ap(s) Ap(s) Tp(s) Tp(s) Cp(s) Tp(s) G) SEQ. ID. NO: 1 (CACCCAATTCTG; DNA, backbone not given here; all phosphorothioate linkages alkylated) [Compound 6b, completely alkylated phosphorothioate dodecamer 6b; ID; NO: 1]	< 2	25	55	–	–	–	–	–
CC(=O)SCCSP(=O)(OC[C@H]1O[C@@H](n2cc(C)c(=O)[nH]c2=O)C[C@@H]1O)O[C@H]1C[C@H](n2cc(C)c(=O)[nH]c2=O)O[C@@H]1CO (stereo partly drawn) [Compound 4b, O-(Thymidin-3'-yl) O-(thymidin-5'-yl) S-(acetylthioethyl) phosphorothioate]	–	–	–	50	50	420	100	10
CC(=O)SCSP(=O)(OC[C@H]1O[C@@H](n2cc(C)c(=O)[nH]c2=O)C[C@@H]1O)O[C@H]1C[C@H](n2cc(C)c(=O)[nH]c2=O)O[C@@H]1CO (stereo partly drawn) [Compound 4c, O-(Thymidin-3'-yl) O-(thymidin-5'-yl) S-(acetylthiomethyl) phosphorothioate]	–	–	–	80	20	60	100	5 to 10
Cc1cn([C@H]2C[C@H](OP(=O)(OC[C@H]3O[C@@H](n4cc(C)c(=O)[nH]c4=O)C[C@@H]3O)SCOC(=O)C(C)(C)C)[C@@H](CO)O2)c(=O)[nH]c1=O (stereo partly drawn) [Compound 4a, O-(Thymidin-3'-yl) O-(thymidin-5'-yl) S-(pivaloyloxymethyl) phosphorothioate]	–	–	–	20	80	360	100	40
